Test [1] is described as follows: Antiproliferative activity against H661 cells. The format is functional, cell-based. Particulars: Homo sapiens, NCI-H661.
The next test deals with HCT-116. As to the kind of experiment: Antiproliferative activity against HCT116 cells. Type of test: functional, cell-based. The following applies: Homo sapiens.
A short description of test [2]: Antiproliferative activity against H1299 cells. The format is functional, cell-based. Particulars: Homo sapiens, NCI-H1299.
For test [3], the target named is Histone H4 (Homo sapiens) (UniProt P62805). Put plainly: Acetylation of histone H4 at 0.3 uM by Western blot analysis. (In general: In western blotting, separated proteins are transferred to a membrane and probed.)
Test [4] shares this target. As to the kind of experiment: Acetylation of histone H4 at 2.5 uM by Western blot analysis.
For test [5] the target is unchanged. As to the kind of experiment: Acetylation of histone H4 at 5 uM by Western blot analysis.

The source made the active and inactive calls. The rule behind the calls is not given here.

The values that follow come from ChEMBL document CHEMBL1137251, “Synthesis of rigid trichostatin A analogs as HDAC inhibitors” (Bioorg Med Chem Lett, 2006).

The term IC50 denotes the concentration that inhibits the measured activity by half. Read a high IC50 as weaker potency.

In test [1], `CC(/C=C/C(=O)Nc1ccccc1N)=C\C1(C)Cc2cc(N(C)C)ccc2C1=O` (centres undefined) gave a 50% inhibitory concentration (IC50) of 2.5 µM.

As to `CC(/C=C/C(=O)Nc1ccccc1N)=C\C1(C)CCc2ccccc2C1=O` (centres undefined), in test [1], the IC50 was 5 µM.

As to `CC(/C=C/C(=O)NO)=C\[C@@H](C)C(=O)c1ccc(N(C)C)cc1` [TRICHOSTATIN], the IC50 with HCT-116 is 0.0013 µM; in test [2], 0.1 µM; in test [1], less than 0.3 µM.

Consider `CC(/C=C/C(=O)NO)=C\C1(C)Cc2cc(N(C)C)ccc2C1=O` (centres undefined), for which the result in test [3] was Active.

For `CC(/C=C/C(=O)Nc1ccccc1N)=C\C1(C)Cc2ccccc2C1=O` (centres undefined), inhibition in test [1] was half-maximal at 3 µM (IC50).

For `C=C(/C=C/C(=O)Nc1ccccc1N)CC1(C)Cc2ccccc2C1=O` (centres undefined), the IC50 in test [1] was more than 10 µM.

The compound `CC(/C=C/C(=O)NO)=C\C1(C)Cc2ccccc2C1=O` (centres undefined) had an IC50 in test [1] of 1.65 µM.

Consider `CC(/C=C/C(=O)Nc1ccccc1N)=C\C1(C)Cc2cc(F)ccc2C1=O` (centres undefined), for which, in test [1], the IC50 turned out to be 7 µM.

Take `CC(/C=C/C(=O)NO)=C\C1(C)Cc2cc(F)ccc2C1=O` (centres undefined): the result in test [4] was Active. For the same compound, the IC50 in test [1] turned out to be 1.5 µM.

In the case of `CC(/C=C/C(=O)NO)=C\C1(C)CCc2ccccc2C1=O` (centres undefined), the result in test [5] was Active. The compound also registered an IC50 in test [1] of 3 µM.
